Test results from ChEMBL document CHEMBL1201862, “PubChem BioAssay data set” (2004).
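1) Cells in 96-well plates. 2) Compound, 48 h, 5 concentrations. 3) Linear interpolation between surrounding doses. 4) Unreached endpoint = highest concentration. Here, GI50 denotes the concentration required for 50% inhibition of growth.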 Calls of active or inactive are those of the source. Cut-off read from the data, not from the text of the source: active = GI50 up to about 1.1 µM and inactive = higher. Where a SMILES comes first, the peptide text is derived from it.

Tests used:
Assay in all cases: NCI-60 cell line screen, 48 h
[1] = tested on: SNB-75
[2] = tested on: HCT-15
[3] = tested on: SK-MEL-5
[4] = tested on: U-251
[5] = tested on: DMS-114
[6] = tested on: M14
[7] = tested on: KM-20L2
[8] = tested on: SW-620
[9] = tested on: EKVX
[10] = tested on: HCC 2998
[11] = tested on: OVCAR-8
[12] = tested on: LXFL 529
[13] = tested on: RXF 631
[14] = tested on: UO-31
[15] = tested on: SR
[16] = tested on: XF498
[17] = tested on: A549
[18] = tested on: HCT-116
[19] = tested on: SF-539
[20] = tested on: DMS-273
[21] = tested on: LOX IMVI
[22] = tested on: NCI-H226
[23] = tested on: CCRF-CEM
[24] = tested on: SK-MEL-28
[25] = tested on: SNB-19
[26] = tested on: NCI-H23
[27] = tested on: UACC-62
[28] = tested on: MOLT-4
[29] = tested on: HOP-62
[30] = tested on: ACHN
[31] = tested on: NCI-H522
[32] = tested on: K562
[33] = tested on: SF-295
[34] = tested on: SN12C
[35] = tested on: COLO 205
[36] = tested on: HT-29
[37] = tested on: KM12
[38] = tested on: SF-268
[39] = tested on: TK-10
[40] = tested on: SNB-78
[41] = tested on: SK-MEL-2
[42] = tested on: NCI-H460
[43] = tested on: OVCAR-4
[44] = tested on: IGROV-1
[45] = tested on: DLD-1
[46] = tested on: 786-0
[47] = tested on: RXF 393
[48] = tested on: M19-MEL
[49] = tested on: OVCAR-5
[50] = tested on: A498
[51] = tested on: UACC-257
[52] = tested on: HL-60
[53] = tested on: HOP-92
[54] = tested on: SK-OV-3
[55] = tested on: HOP-18
[56] = tested on: OVCAR-3
[57] = tested on: RPMI-8226
[58] = tested on: CAKI-1
[59] = tested on: Malme-3M

## COc1nc2c(c(O)c(C)c(=O)n2OC2OC(COC(C)=O)C(OC(C)=O)C(OC(C)=O)C2OC(C)=O)c(=O)n1C (configuration not stated)
[1]
  GI50: > 100 µM (inactive)
[2]
  GI50: > 100 µM
[3]
  GI50: > 100 µM (inactive)
[4]
  GI50: > 100 µM (inactive)
[5]
  GI50: > 100 µM (inactive)
[6]
  GI50: > 100 µM (inactive)
[7]
  GI50: > 100 µM (inactive)
[8]
  GI50: > 100 µM (inactive)
[9]
  GI50: > 100 µM (inactive)
[10]
  GI50: > 100 µM (inactive)
[11]
  GI50: > 100 µM (inactive)
[12]
  GI50: > 100 µM (inactive)
[13]
  GI50: > 100 µM (inactive)
[14]
  GI50: > 100 µM (inactive)
[15]
  GI50: > 100 µM (inactive)
[16]
  GI50: > 100 µM (inactive)
[17]
  GI50: > 100 µM (inactive)
[18]
  GI50: > 100 µM (inactive)
[19]
  GI50: > 100 µM (inactive)
[20]
  GI50: > 100 µM (inactive)
[21]
  GI50: > 100 µM (inactive)
[22]
  GI50: > 100 µM (inactive)
[23]
  GI50: > 100 µM (inactive)
[24]
  GI50: > 100 µM (inactive)
[25]
  GI50: > 100 µM (inactive)
[26]
  GI50: > 100 µM (inactive)
[27]
  GI50: > 100 µM (inactive)
[28]
  GI50: > 100 µM (inactive)
[29]
  GI50: > 100 µM (inactive)
[30]
  GI50: > 100 µM (inactive)
[31]
  GI50: 44.8 µM (inactive)
[32]
  GI50: > 100 µM (inactive)
[33]
  GI50: > 100 µM (inactive)
[34]
  GI50: > 100 µM (inactive)
[35]
  GI50: > 100 µM (inactive)
[36]
  GI50: > 100 µM (inactive)
[37]
  GI50: > 100 µM (inactive)
[38]
  GI50: > 100 µM (inactive)
[39]
  GI50: > 100 µM (inactive)
[40]
  GI50: > 100 µM (inactive)
[41]
  GI50: > 100 µM (inactive)
[42]
  GI50: > 100 µM (inactive)
[43]
  GI50: > 100 µM (inactive)
[44]
  GI50: > 100 µM (inactive)
[45]
  GI50: > 100 µM (inactive)
[46]
  GI50: > 100 µM (inactive)
[47]
  GI50: > 100 µM (inactive)
[48]
  GI50: > 100 µM (inactive)
[49]
  GI50: > 100 µM (inactive)

## CC1(Cl)CCC2(CC(Br)=CC3OC32C)CC1Br (configuration not stated)
[50]
  GI50: 26.6 µM (inactive)
[4]
  GI50: 19 µM (inactive)
[51]
  GI50: 18.4 µM (inactive)
[5]
  GI50: 29.4 µM (inactive)
[6]
  GI50: 43.2 µM (inactive)
[52]
  GI50: 15.2 µM (inactive)
[9]
  GI50: 52.6 µM (inactive)
[11]
  GI50: 30.8 µM (inactive)
[13]
  GI50: > 10 µM (inactive)
[14]
  GI50: 28.6 µM (inactive)
[15]
  GI50: 20.7 µM (inactive)
[53]
  GI50: 24.9 µM (inactive)
[17]
  GI50: 28.6 µM (inactive)
[18]
  GI50: 18.2 µM (inactive)
[22]
  GI50: 23.2 µM (inactive)
[23]
  GI50: 18.6 µM (inactive)
[24]
  GI50: 23.6 µM (inactive)
[25]
  GI50: 45 µM (inactive)
[26]
  GI50: 20.1 µM (inactive)
[27]
  GI50: 19.2 µM (inactive)
[28]
  GI50: 17 µM (inactive)
[29]
  GI50: 39.4 µM (inactive)
[31]
  GI50: 23.9 µM (inactive)
[33]
  GI50: 22.6 µM (inactive)
[36]
  GI50: 17.9 µM (inactive)
[37]
  GI50: 32.5 µM (inactive)
[54]
  GI50: 51.8 µM (inactive)
[38]
  GI50: 19.2 µM (inactive)
[39]
  GI50: 46.6 µM (inactive)
[40]
  GI50: 12.4 µM (inactive)
[42]
  GI50: 27.1 µM (inactive)
[44]
  GI50: 42.9 µM (inactive)
[47]
  GI50: 18.3 µM (inactive)
[48]
  GI50: 32.3 µM (inactive)
[49]
  GI50: 79.4 µM (inactive)

## CCC(C)C1NC(=O)C2CCCN2C(=O)CNC(=O)C(C)NC(=O)C(Cc2ccccc2)NC(=O)C(C(C)C)NC1=O (configuration not stated) (cyclo(GPIVFA); configuration not given here)
[50]
  GI50: > 100 µM (inactive)
[1]
  GI50: > 100 µM (inactive)
[2]
  GI50: > 100 µM
[3]
  GI50: > 100 µM (inactive)
[4]
  GI50: > 100 µM (inactive)
[51]
  GI50: > 100 µM (inactive)
[5]
  GI50: > 100 µM (inactive)
[6]
  GI50: > 100 µM (inactive)
[7]
  GI50: > 100 µM (inactive)
[8]
  GI50: > 100 µM (inactive)
[9]
  GI50: > 100 µM (inactive)
[55]
  GI50: > 100 µM (inactive)
[10]
  GI50: > 100 µM (inactive)
[11]
  GI50: > 100 µM (inactive)
[12]
  GI50: > 100 µM (inactive)
[13]
  GI50: > 100 µM (inactive)
[14]
  GI50: > 100 µM (inactive)
[15]
  GI50: > 100 µM (inactive)
[53]
  GI50: > 100 µM (inactive)
[17]
  GI50: > 100 µM (inactive)
[18]
  GI50: > 100 µM (inactive)
[19]
  GI50: > 100 µM (inactive)
[21]
  GI50: > 100 µM (inactive)
[22]
  GI50: > 100 µM (inactive)
[56]
  GI50: > 100 µM (inactive)
[24]
  GI50: > 100 µM (inactive)
[25]
  GI50: > 100 µM (inactive)
[26]
  GI50: > 100 µM (inactive)
[27]
  GI50: > 100 µM (inactive)
[57]
  GI50: > 100 µM (inactive)
[28]
  GI50: > 100 µM (inactive)
[29]
  GI50: > 100 µM (inactive)
[30]
  GI50: > 100 µM (inactive)
[33]
  GI50: > 100 µM (inactive)
[34]
  GI50: > 100 µM (inactive)
[35]
  GI50: > 100 µM (inactive)
[36]
  GI50: > 100 µM (inactive)
[37]
  GI50: 61.2 µM (inactive)
[54]
  GI50: > 100 µM (inactive)
[38]
  GI50: > 100 µM (inactive)
[39]
  GI50: > 100 µM (inactive)
[58]
  GI50: > 100 µM (inactive)
[42]
  GI50: > 100 µM (inactive)
[43]
  GI50: > 100 µM (inactive)
[44]
  GI50: > 100 µM (inactive)
[45]
  GI50: > 100 µM (inactive)
[59]
  GI50: > 100 µM (inactive)
[46]
  GI50: > 100 µM (inactive)
[47]
  GI50: > 100 µM (inactive)
[48]
  GI50: > 100 µM (inactive)
[49]
  GI50: > 100 µM (inactive)

## C/C(CC(=O)Nc1ccc(C)cc1C)=N/N=C(N)N
[50]
  GI50: > 100 µM (inactive)
[1]
  GI50: > 100 µM (inactive)
[3]
  GI50: > 100 µM (inactive)
[4]
  GI50: > 100 µM (inactive)
[51]
  GI50: > 100 µM (inactive)
[5]
  GI50: > 100 µM (inactive)
[6]
  GI50: > 100 µM (inactive)
[52]
  GI50: > 100 µM (inactive)
[7]
  GI50: > 100 µM (inactive)
[8]
  GI50: > 100 µM (inactive)
[9]
  GI50: > 100 µM (inactive)
[10]
  GI50: > 100 µM (inactive)
[11]
  GI50: > 100 µM (inactive)
[12]
  GI50: > 100 µM (inactive)
[13]
  GI50: > 100 µM (inactive)
[14]
  GI50: > 100 µM (inactive)
[53]
  GI50: > 100 µM (inactive)
[16]
  GI50: > 100 µM (inactive)
[17]
  GI50: > 100 µM (inactive)
[18]
  GI50: > 100 µM (inactive)
[19]
  GI50: > 100 µM (inactive)
[20]
  GI50: > 100 µM (inactive)
[21]
  GI50: > 100 µM (inactive)
[22]
  GI50: > 100 µM (inactive)
[56]
  GI50: > 100 µM (inactive)
[23]
  GI50: > 100 µM (inactive)
[24]
  GI50: > 100 µM (inactive)
[26]
  GI50: > 100 µM (inactive)
[27]
  GI50: > 100 µM (inactive)
[57]
  GI50: > 100 µM (inactive)
[28]
  GI50: > 100 µM (inactive)
[29]
  GI50: > 100 µM (inactive)
[30]
  GI50: > 100 µM (inactive)
[31]
  GI50: > 100 µM (inactive)
[32]
  GI50: > 100 µM (inactive)
[33]
  GI50: > 100 µM (inactive)
[35]
  GI50: > 100 µM (inactive)
[36]
  GI50: > 100 µM (inactive)
[37]
  GI50: > 100 µM (inactive)
[54]
  GI50: > 100 µM (inactive)
[38]
  GI50: > 100 µM (inactive)
[39]
  GI50: > 100 µM (inactive)
[40]
  GI50: > 100 µM (inactive)
[41]
  GI50: > 100 µM (inactive)
[42]
  GI50: > 100 µM (inactive)
[44]
  GI50: > 100 µM (inactive)
[45]
  GI50: > 100 µM (inactive)
[59]
  GI50: > 100 µM (inactive)
[46]
  GI50: > 100 µM (inactive)
[47]
  GI50: > 100 µM (inactive)
[48]
  GI50: > 100 µM (inactive)
[49]
  GI50: > 100 µM (inactive)
